Laboratory results from patent US20260335282A1, “NOVEL 3-ARYLIDENE-2-INDOLINONE DERIVATIVES FOR THERAPEUTIC USE” (ISTANBUL UNIVERSITESI REKTORLUGU, priority 2022, published 2026).
Where two headings read alike, the source gives them in different places.

Legend:
MCF-7 cells = experiment: MTT cytotoxicity, breast cancer cells MCF-7; assay type: cell-based, human; settings: MTT
Excerpt: (§1) The cytotoxicity, general tyrosine kinase inhibitory effects and cell death (apoptosis/necrosis) assays of 1-benzyl-3-(1H-indol-3-ylmethylidene)-1,3-dihydro-2H-indol-2-one derivatives (Formula 5) of the present invention are studied by the following methods. […] HUVEC (human umbilical vein endothelial cell), MCF-10F (human breast epithelial cell) and Beas2b (human lung bronchial epithelial cell) cell lines have been used as healthy control cells in MTT experiments.
(§2) Beas2b (human lung bronchiole epithelial cell) and HEK293 (renal tubule epithelium) cells used as normal cell lines were cultured in RPMI medium, and HUVEC (human umbilical cord endothelial cells) and MCF-10F (human breast epithelial cell) cells are cultured in DMEM medium containing 100 µg/ml penicillin/streptomycin. The cells, which covered 70% of the culture flask, are washed with phosphate buffer and then removed from the surface of the flask by application of trypsin-ethylenediamine tetraacetic acid (Trypsin-EDTA; 0.25%) solution, passaged, counted and seeded on appropriate plates before each experiment. Cells are treated with a total of 45 2-indolinone compounds (5) at concentrations of 0.1, 1, 5 and 10 μM. Stock compounds are prepared in 1 ml dimethylsulfoxide (DMSO) and 4 different dilutions were prepared with medium and performed to the cells. Control group cells are treated with DMSO at a similar concentration to the experimental groups.
(§3) MTT (3-(4,5-dimethylthiazol-2-yl)-2,5-diphenyl-2H-tetrazolium bromide) colorimetric assay provides quantitation of viable cells with ongoing mitochondrial activity in culture medium. According to the standard procedure in cell culture conditions, cells are maintained in RPMI-1640 and DMEM culture media containing 10% FBS and 1% penicillin/streptomycin. The trypan blue test is used for cell counts.
(§4) The effects of 45 2-indolinone compounds (5) on cell viability in all cancer cell lines are investigated by MTT assay. Cells are seeded in a 96-well flat bottom plate with 5000 cells in each well and 2-indolinone compounds (5) at concentrations of 0.1, 1, 5 and 10 μM are performed to the cells the next day. After 48 and/or 72 hours following treatment with 2-indolinone compounds, 50 μl of the supernatant is slowly discarded (as it was acid medium) and MTT at a concentration of 5 mg/ml is added to each well in a volume of 10 μl. After incubation for 4 hours, the formazan crystals formed in the wells are dissolved by adding 100 μl DMSO and the optical density is read at 570 nm test wavelength and 630 nm reference wavelength. Cell viability is expressed as % cell viability by comparing the absorbance of control and test wells. IC50 value is calculated from the dose-response curves prepared for each compound. In addition, the possible DMSO effect is eliminated by preparing negative control wells compatible with the amount of DMSO contained in the compounds. To understand the reaction of the compounds with MTT, cell-free (MTT+compounds) negative controls are prepared at the concentrations used (Mosmann, 1983). […] The absorbance values obtained are compared to the control and statistically evaluated by unpaired t-test using “Graphpad Prism 5.04” software. “P<0.05” is accepted as significant. When evaluating cytotoxic effects, the present inventors aim for the inventive compounds to be effective in cancer cells and ineffective in healthy cells. The inventive compounds have also been compared with sunitinib, one of the reference chemotherapy drugs currently used in treatment.
(§5) Among the compounds of the present invention, those that killed cancer cells by at least 50% (p<0.05) are selected and tested whether a 10-fold concentration of the M concentration at the IC50 value is toxic to normal healthy cells.

MDA-MB-231 cells = experiment: MTT cytotoxicity, breast cancer cells MDA-MB-231; assay type: cell-based, human; settings: for IC50: MTT, no * mark (incubation time not given)
Excerpt: as §1, §2, §3, §4, §5

A549 cells = experiment: MTT cytotoxicity, lung cancer cells A549; assay type: cell-based, human
Excerpt: as §1, §2, §3, §4, §5

CAKI-1 cells = experiment: MTT cytotoxicity, kidney cancer cells CAKI-1; assay type: cell-based, human
Excerpt: as §1, §2, §3, §4, §5

A498 cells = experiment: MTT cytotoxicity, kidney cancer cells A498; assay type: cell-based, human; settings: MTT
Excerpt: as §1, §2, §3, §4, §5

MCF-10F/Beas2b cells = experiment: MTT cytotoxicity, healthy cells MCF-10F/Beas2b; assay type: cell-based, human; settings: for IC50: Homo sapiens, MTT
Excerpt: as §1, §2, §3, §4, §5

HUVEC cells = experiment: MTT cytotoxicity, healthy cells HUVEC; assay type: cell-based, human; settings: for IC50: MTT
Excerpt: as §1, §2, §3, §4, §5

HT-29 cells = experiment: MTT cytotoxicity, colon cancer cells HT-29; assay type: cell-based, human; settings: for IC50: MTT
Excerpt: as §1, §2, §3, §4

HCT-116 cells = experiment: MTT cytotoxicity, colon cancer cells HCT-116; assay type: cell-based, human
Excerpt: as §1, §2, §3, §4

MIAPaCa-2 cells = experiment: MTT cytotoxicity, pancreas cancer cells MIAPaCa-2; assay type: cell-based, human
Excerpt: as §1, §2, §3, §4

human cancer cells = experiment: MTT cell viability, human cancer cells overall; assay type: cell-based; settings: cell line as discussed at the place
Excerpt: as §1, §2, §3
The effects of 45 2-indolinone compounds (5) on cell viability in all cancer cell lines are investigated by MTT assay. Cells are seeded in a 96-well flat bottom plate with 5000 cells in each well and 2-indolinone compounds (5) at concentrations of 0.1, 1, 5 and 10 μM are performed to the cells the next day. After 48 and/or 72 hours following treatment with 2-indolinone compounds, 50 μl of the supernatant is slowly discarded (as it was acid medium) and MTT at a concentration of 5 mg/ml is added to each well in a volume of 10 μl. After incubation for 4 hours, the formazan crystals formed in the wells are dissolved by adding 100 μl DMSO and the optical density is read at 570 nm test wavelength and 630 nm reference wavelength. Cell viability is expressed as % cell viability by comparing the absorbance of control and test wells. IC50 value is calculated from the dose-response curves prepared for each compound. In addition, the possible DMSO effect is eliminated by preparing negative control wells compatible with the amount of DMSO contained in the compounds. To understand the reaction of the compounds with MTT, cell-free (MTT+compounds) negative controls are prepared at the concentrations used (Mosmann, 1983). […] The absorbance values obtained are compared to the control and statistically evaluated by unpaired t-test using “Graphpad Prism 5.04” software. “P<0.05” is accepted as significant. When evaluating cytotoxic effects, the present inventors aim for the inventive compounds to be effective in cancer cells and ineffective in healthy cells. […]

[1] = no * mark (incubation time not specified)
[2] = read-out: IC50, MDA-MB-231 (breast)
[3] = *: effective 72 hours after incubation
[4] = MTT, no * mark (incubation time not specified)

## Cc1cccc(CN2C(=O)/C(=C\c3c[nH]c4ccccc34)c3cccc(Cl)c32)c1 [27C]
MCF-7 cells; [1]
  IC50: 3670 nM
MDA-MB-231 cells; MCF-10F vs MDA-MB-231
  selectivity index (SI): > 12
MDA-MB-231 cells; [2]
  IC50: 810 nM
A549 cells; [1]
  IC50: > 10000 nM
CAKI-1 cells; [1]
  IC50: > 10000 nM
A498 cells; [1]
  IC50: 2400 nM
MCF-10F/Beas2b cells; MCF-10F/Beas2b vs breast or kidney cancer cells, cancer line not given
  Selectivite Index (SI), MCF-10F/Beas2b (Table 1): > 12.34
HUVEC cells; HUVEC vs breast or kidney cancer cells, cancer line not given
  Selectivite Index (SI), HUVEC (Table 1): 1.28
HUVEC cells; [3]
  IC50: 1040 nM
HT-29 cells; [1]
  IC50: > 10000 nM
HCT-116 cells; [1]
  IC50: > 10000 nM
MIAPaCa-2 cells; [4]
  IC50: > 10000 nM
Human cancer cells
  potency/selectivity compared with sunitinib malate: much more potent and have higher SI values than the reference compound sunitinib malate

## O=C1/C(=C\c2c[nH]c3ccccc23)c2cc(Cl)ccc2N1Cc1ccc(F)cc1 [17C]
MCF-7 cells; Homo sapiens, MCF7, *: effective 72 hours after incubation
  IC50: 4760 nM
MDA-MB-231 cells; Homo sapiens, MDA-MB-231, read-out: IC50, MDA-MB-231 (breast)
  IC50: > 10000 nM
A549 cells; Homo sapiens, A549, no * mark (incubation time not given)
  IC50: 1110 nM
CAKI-1 cells; Homo sapiens, CAKI-1, *: effective 72 hours after incubation
  IC50: 4620 nM
A498 cells; Homo sapiens, A498, 72 h, *: effective 72 hours after incubation
  IC50: 770 nM
MCF-10F/Beas2b cells; [3]
  IC50: 2660 nM
MCF-10F/Beas2b cells; no * mark (incubation time not given)
  IC50: 2660 nM
MCF-10F/Beas2b cells; healthy cells
  cytotoxicity in healthy cells: high in healthy cells
HUVEC cells; Homo sapiens, HUVEC, no * mark (incubation time not given)
  IC50: 1240 nM
HT-29 cells; Homo sapiens, HT-29, no * mark (incubation time not given)
  IC50: 2070 nM
HCT-116 cells; Homo sapiens, HCT-116, no * mark (incubation time not given)
  IC50: 930 nM
MIAPaCa-2 cells; Homo sapiens, MIA PaCa-2, MTT, no * mark (incubation time not given)
  IC50: 1320 nM
Human cancer cells
  potency/selectivity compared with sunitinib malate: more potent than sunitinib malate

## O=C1/C(=C\c2c[nH]c3ccccc23)c2ccccc2N1Cc1cccc(F)c1 [51C]
MCF-7 cells; [1]
  IC50: > 10000 nM
MDA-MB-231 cells; [2]
  IC50: > 10000 nM
A549 cells; [1]
  IC50: > 10000 nM
CAKI-1 cells; [1]
  IC50: > 10000 nM
A498 cells; [1]
  IC50: 6220 nM
MCF-10F/Beas2b cells; MCF-10F/Beas2b vs colon or pancreas cancer cells, cancer line not given
  Selectivite Index, MCF-10F/Beas2b (Table 2): > 10.75
HUVEC cells; HUVEC vs colon or pancreas cancer cells, cancer line not given
  Selectivite Index, HUVEC (Table 2): 6.13
HUVEC cells; [1]
  IC50: 5700 nM
HT-29 cells; MCF-10F/Beas2b vs HT-29
  selectivity index: > 11
HT-29 cells; [1]
  IC50: 930 nM
HCT-116 cells; [1]
  IC50: 1130 nM
MIAPaCa-2 cells; [4]
  IC50: 5200 nM
Human cancer cells
  potency/selectivity compared with sunitinib malate: more potent and selective than Sunitinib malate
